The values below come from patent US20060084135A1, “Compositions for manipulating the lifespan and stress response of cells and organisms” (priority 2003, published 2006).

The target in the assay is T1, recombinant human SIRT1 (Homo sapiens, UniProt Q96EB6).
T1 sequence (Q96EB6 1-747): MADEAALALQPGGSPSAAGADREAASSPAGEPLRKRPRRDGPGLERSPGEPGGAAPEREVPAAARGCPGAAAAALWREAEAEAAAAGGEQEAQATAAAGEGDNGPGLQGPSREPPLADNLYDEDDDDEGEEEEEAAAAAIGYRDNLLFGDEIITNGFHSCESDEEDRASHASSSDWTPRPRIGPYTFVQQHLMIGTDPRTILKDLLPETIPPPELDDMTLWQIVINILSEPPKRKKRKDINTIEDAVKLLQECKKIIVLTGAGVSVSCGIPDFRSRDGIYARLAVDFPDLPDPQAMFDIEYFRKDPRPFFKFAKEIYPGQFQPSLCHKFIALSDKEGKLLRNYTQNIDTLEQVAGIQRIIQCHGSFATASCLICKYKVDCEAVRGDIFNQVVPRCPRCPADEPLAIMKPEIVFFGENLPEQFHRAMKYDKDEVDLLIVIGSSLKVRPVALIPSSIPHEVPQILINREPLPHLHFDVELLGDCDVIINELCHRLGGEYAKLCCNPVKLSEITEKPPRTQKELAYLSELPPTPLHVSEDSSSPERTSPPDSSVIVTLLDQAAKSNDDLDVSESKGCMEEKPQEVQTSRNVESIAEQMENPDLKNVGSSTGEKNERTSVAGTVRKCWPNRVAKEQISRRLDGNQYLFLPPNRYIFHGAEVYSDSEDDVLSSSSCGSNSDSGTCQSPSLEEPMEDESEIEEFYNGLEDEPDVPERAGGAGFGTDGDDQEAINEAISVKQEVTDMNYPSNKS
Kind of assay: SIRT1 fluorescent deacetylation assay (p53-382 acetylated peptide substrate). It is filed as biochemical.

Setting [1] is: Supplementary Table 6, free radical protective compounds, 100 μM, 25 μM NAD+, 25 μM p53-382 acetylated peptide.
Setting [2] is: Supplementary Table 8, compound at 10 μM, 25 μM NAD+, 25 μM p53-382 acetylated peptide.
Where [3] appears, read: Supplementary Table 2, flavones part I, 100 μM, 25 μM NAD+, 25 μM p53-382 acetylated peptide.
[4] abbreviates: Table 11, resveratrol analogs, 100 μM, 25 μM NAD+, 25 μM p53-382 acetylated peptide.
The mark [5] stands for this setting: Supplementary Table 1, stilbenes and chalcones, 100 μM, 25 μM NAD+, 25 μM p53-382 acetylated peptide.
Where [6] appears, read: Table 9, resveratrol analogs, 100 μM, 25 μM NAD+, 25 μM p53-382 acetylated peptide.
Where [7] appears, read: Supplementary Table 3, flavones part II, 100 μM, 25 μM NAD+, 25 μM p53-382 acetylated peptide.
[8] abbreviates: Supplementary Table 4, isoflavones, flavanones, anthocyanidins, 100 μM, 25 μM NAD+, 25 μM p53-382 acetylated peptide.
Setting [9] is: Table 12, resveratrol analogs, 100 μM, 25 μM NAD+, 25 μM p53-382 acetylated peptide.
Where [10] appears, read: Table 13, resveratrol analogs, 100 μM, 25 μM NAD+, 25 μM p53-382 acetylated peptide.

Where a name gives a salt, the structure may show the parent alone. Read-outs that look alike come from different tables or passages of the source.

For `Cc1c(C)c2c(c(C)c1O)CCC(C)(CN1CCN(c3cc(N4CCCC4)nc(N4CCCC4)n3)CC1)O2.Cl.Cl` (single isomer, unassigned; (-)) [Compound U-83836E, (−)-2-((4-(2,6-di-1-Pyrrolidinyl-4-pyrimidinyl)-1-piperazinyl)methyl)-3,4-dihydro-2,5,7,8-tetramethyl-2H-1-benzopyran-6-ol-2HCl, reference compound], the “Ratio to Control Rate Mean ± SE” value under setting [1] worked out at 1.030 ± 0.055.
Regarding `CC(C)c1cccc(=O)c(O)c1` [Hinokitiol, 2-hydroxy-4-isopropyl-2,4,6-cycloheptatrien-1-one], under setting [1], the “Ratio to Control Rate Mean ± SE” value is 2.48 ± 0.15.
For the molecule Camptothecin [reference compound], under setting [2], the “Ratio to Control Rate Mean ± SE” value was determined as 2.92 ± 0.41.
On the same count and under the same terms, the same measure for `O=c1oc2cc(O)ccc2c2oc3cc(O)ccc3c12` [Coumestrol]: 2.30 ± 0.31.
Turning to `O=c1cc(-c2ccc(O)cc2)oc2cc(O)cc(O)c12` [Apigenin, 5,7,4′-Trihydroxyflavone], under setting [3], the “Ratio to Control Rate Mean ± SE” value is 2.77 ± 0.40.
As for `O=c1cc(-c2ccc(O)c(O)c2)oc2cc(O)cc(O)c12` [Luteolin, 5,7,3′,4′-Tetrahydroxyflavone], the “Ratio to Control Rate Mean ± SE” value under setting [3] came out at 5.66 ± 0.80.
With `CC(C)c1ccc(/C=C/c2cc(O)cc(O)c2)cc1` [BML-231, 3,5-Dihydroxy-4′-isopropyl-trans-stilbene], the “Ratio to Control Rate Mean ± SE” value (Table 10, resveratrol analogs, 100 μM, 25 μM NAD+, 25 μM p53-382 acetylated peptide) came out at 6.01 ± 0.15.
For `Oc1cc(O)cc(/C=C/c2ccc3ccccc3c2)c1` [BML-218, (E)-1-(3,5-Dihydroxyphenyl)-2-(2-napthyl) ethene], the “Ratio to Control Rate Mean ± SE” value under setting [4] amounted to 3.05 ± 0.37.
Regarding `COc1ccc(/C=C/c2cc(O)cc(O[C@@H]3O[C@H](CO)[C@@H](O)[C@H](O)[C@H]3O)c2)cc1O` [Rhapontin, 3,3′,5-Trihydroxy-4′-methoxystilbene 3-O-β-D-glucoside], the “Ratio to Control Rate Mean ± SE” value under setting [5] stood at 1.40 ± 0.37.
With `O=c1cc(-c2cc(O)c(O)c(O)c2)oc2cc(O)ccc12` [7,3′,4′,5′-Tetrahydroxyflavone], under setting [3], the “Ratio to Control Rate Mean ± SE” value was 3.62 ± 0.56.
As to `Cc1c(C)c2c(c(C)c1O)CCC(C)(C(=O)O)O2` (stereo not shown) [Trolox, 6-Hydroxy-2,5,7,8-tetramethylchroman-2-carboxylic acid, reference compound], under setting [1], the “Ratio to Control Rate Mean ± SE” value worked out at 0.995 ± 0.019.
As for `Cc1ccc(/C=C/c2cc(O)cc(O)c2)cc1` [BML-228, 3,5-Dihydroxy-4′-methyl-trans-stilbene], under setting [6], the “Ratio to Control Rate Mean ± SE” value amounted to 7.72 ± 0.12.
Turning to `O=c1c(O)c(-c2ccc(O)c(O)c2)oc2c(O)c(O)cc(O)c12` [Gossypetin, 3,5,7,8,3′,4′-Hexahydroxyflavone], under setting [7], the “Ratio to Control Rate Mean ± SE” value came to 0.723 ± 0.062.
As for `O=C(/C=C/c1ccccc1)c1ccccc1` [Chalcone], the “Ratio to Control Rate Mean ± SE” value under setting [5] is 1.34 ± 0.17.
As for `O=c1c(O)c(-c2cc(O)c(O)c(O)c2)oc2cc(O)ccc12` [3,7,3′,4′,5′-Pentahydroxyflavone], the “Ratio to Control Rate Mean ± SE” value under setting [7] was 0.826 ± 0.074.
As for `Nc1c(Br)cc(Br)cc1CN[C@H]1CC[C@H](O)CC1` [Ambroxol, trans-4-(2-Amino-3,5-dibromobenzylamino)cyclohexane.HCl, reference compound], the “Ratio to Control Rate Mean ± SE” value under setting [1] came out at 1.075 ± 0.0026.
For the molecule `Oc1cccc(/C=C/c2ccccc2)c1` [3-Hydroxystilbene], the “Ratio to Control Rate Mean ± SE” value under setting [4] is 2.357 ± 0.074.
As to `O=c1cc(-c2ccc(O)cc2)oc2ccccc12` [4′-Hydroxyflavone], the “Ratio to Control Rate Mean ± SE” value under setting [7] is given as 1.73 ± 0.12.
As to `O=C1CC(c2ccccc2)Oc2ccccc21` (stereo not shown) [Flavanone], under setting [8], the “Ratio to Control Rate Mean ± SE” value stood at 1.92 ± 0.24.
For `COc1ccc(/C=C/c2cc(O)cc(O)c2)cc1O` [Rhapontin aglycone, 3,5,3′Trihydroxy-4′-methoxy-trans-stilbene], the “Ratio to Control Rate Mean ± SE” value under setting [4] is 4.060 ± 0.069.
As for `O=C(/C=C/c1ccc(O)c(O)c1)Oc1ccccc1` [Caffeic Acid Phenyl Ester], under setting [1], the “Ratio to Control Rate Mean ± SE” value is 1.80 ± 0.16.
Consider `Oc1ccc(/C=C/c2ccccc2)cc1O` [3,4-Dihydroxy-trans-stilbene], for which the “Ratio to Control Rate Mean ± SE” value under setting [9] is 1.64 ± 0.10.
Consider `Oc1cc(O)c2cc(O)c(-c3cc(O)c(O)c(O)c3)[o+]c2c1.[Cl-]` [Delphinidin chloride, 3,5,7,3′,4′,5′-Hexahydroxyflavylium chloride], for which, under setting [8], the “Ratio to Control Rate Mean ± SE” value is given as 0.4473 ± 0.0071.
Consider `O=c1cc(-c2ccccc2)oc2cccc(O)c12` [5-Hydroxyflavone], for which the “Ratio to Control Rate Mean ± SE” value under setting [7] is on record as 1.22 ± 0.19.
Same read-out and setting: the same measure for `O=c1cc(-c2ccc(O)cc2)oc2cccc(O)c12` [5,4′-Dihydroxyflavone]: 1.56 ± 0.15.
On to `Cl.O.O=C(O)CN(CCN(CC(=O)O)Cc1ccccc1O)Cc1ccccc1O` [HBED, N,N′-Di-(2-hydroxybenzyl)ethylenediamine-N,N′-diacetic acid.HCl.H2O, reference compound], for which, under setting [1], the “Ratio to Control Rate Mean ± SE” value turned out to be 1.150 ± 0.090.
Regarding `CC(=O)Oc1cc(O)cc(/C=C/c2ccc(O)cc2)c1` [BML-227, 3,4′-Dihydroxy-5-acetoxy-trans-stilbene], the “Ratio to Control Rate Mean ± SE” value under setting [4] is recorded as 3.340 ± 0.093.
As to `Cc1ccc(C(=O)Nc2ccc(S(=O)(=O)O)c3cc(S(=O)(=O)O)cc(S(=O)(=O)O)c23)cc1NC(=O)c1cccc(NC(=O)Nc2cccc(C(=O)Nc3cc(C(=O)Nc4ccc(S(=O)(=O)O)c5cc(S(=O)(=O)O)cc(S(=O)(=O)O)c45)ccc3C)c2)c1` [Suramin, reference compound], the “Ratio to Control Rate Mean ± SE” value was −0.0002.
As for `CCc1ccc(/C=C/c2cc(O)cc(O)c2)cc1` [BML-225, 3,5-Dihydroxy-4′-ethyl-trans-stilbene], the “Ratio to Control Rate Mean ± SE” value under setting [6] turned out to be 9.373 ± 0.014.
On to `O=C(Nc1ccccc1)c1cc(O)cc(O)c1` [BML-219, N-phenyl-(3,5-dihydroxy)benzamide], for which the “Ratio to Control Rate Mean ± SE” value under setting [10] was determined as 0.902 ± 0.014.
Consider `COc1ccc(/C=C/c2ccccc2)cc1OC` [3,4-Dimethoxy-trans-stilbene], for which the “Ratio to Control Rate Mean ± SE” value under setting [9] stood at 1.127 ± 0.019.
For the molecule `CC1=NN(c2ccccc2)C(=O)C1` [MCI-186, 3-Methyl-1-phenyl-2-pyrazolin-5-one, reference compound], the “Ratio to Control Rate Mean ± SE” value under setting [1] is 1.2513 ± 0.0080.
For `O=c1cc(-c2ccc(O)cc2)oc2cc(O)ccc12` [7,4′-Dihydroxyflavone], under setting [3], the “Ratio to Control Rate Mean ± SE” value worked out at 1.91 ± 0.17.
Consider `C(=C\c1ccccc1)/c1ccccc1` [trans-Stilbene], for which, under setting [5], the “Ratio to Control Rate Mean ± SE” value stood at 1.48 ± 0.15.
For the molecule `O=c1cc(-c2ccc(O)cc2)oc2cc(O)c(O)c(O)c12` [6-Hydroxyapigenin, 5,6,7,4′-Tetrahydroxyflavone], the “Ratio to Control Rate Mean ± SE” value under setting [3] is 3.06 ± 0.29.
Turning to `CC(Cc1ccc(O)c(O)c1)C(C)Cc1ccc(O)c(O)c1` (stereo not shown) [NDGA], for the setting “Supplementary Table 8, compound at 100 μM, 25 μM NAD+, 25 μM p53-382 acetylated peptide”, the “Ratio to Control Rate Mean ± SE” value is recorded as 1.738 ± 0.088.
Consider `O=C1CC(c2ccc(O)cc2)Oc2cc(O)cc(O)c21` (stereo not shown) [Naringenin, 5,7,4′-Trihydroxyflavanone], for which the “Ratio to Control Rate Mean ± SE” value under setting [8] is given as 2.10 ± 0.23.
Consider `Oc1ccc(/C=C/c2ccccc2)cc1` [4-Hydroxy-trans-stilbene], for which the “Ratio to Control Rate Mean ± SE” value under setting [10] came out at 0.943 ± 0.039.
On to `Oc1ccc(-c2[o+]c3cc(O)cc(O)c3cc2O)cc1.[Cl-]` [Pelargonidin chloride, 3,5,7.4′-Tetrahydroxyflavylium chloride], for which the “Ratio to Control Rate Mean ± SE” value came out at 1.586.
For the molecule `O=c1c(O)c(-c2ccc(O)cc2)oc2cc(O)cc(O)c12` [Kaempferol, 3,5,7,4′-Tetrahydroxyflavone], the “Ratio to Control Rate Mean ± SE” value under setting [3] came to 3.55 ± 0.56.
As to `O=C1c2c(O)cc(O)cc2OC(c2ccc(O)c(O)c2)C1O` (stereo not shown) [3,5,7,3′,4′-Pentahydroxyflavanone], the “Ratio to Control Rate Mean ± SE” value under setting [8] was found to be 1.97 ± 0.22.
Regarding `O=C(O[C@@H]1Cc2c(O)cc(O)cc2O[C@@H]1c1cc(O)c(O)c(O)c1)c1cc(O)c(O)c(O)c1` [(−)-Epigallocatechin Gallate], the “Ratio to Control Rate Mean ± SE” value (Supplementary Table 5, catechins, 100 μM, 25 μM NAD+, 25 μM p53-382 acetylated peptide) is on record as 0.32 ± 0.12.
Take `CC(=O)Nc1ccc(/C=C/c2cc(O)cc(O)c2)cc1` [BML-222, 3,5-Dihydroxy-4′-acetamide-trans-stilbene]: the “Ratio to Control Rate Mean ± SE” value under setting [9] turned out to be 1.88 ± 0.11.
